Like-named read-outs stand apart in the source and are kept apart here.
Columns and labels:
Parameters in all cases: species or system Hepatitis C virus (HCV)
HCV replicon 1A = experiment: Cell-based HCV replicon assay (Replicon Assay A), replicon 1A; conditions: replicon RNA by real time PCR, cells harvested on day 3
Description: (§1) To measure cell-based anti-HCV activity of compounds of the present invention, two complimentary assays were employed using various replicons. In the first assay (“Replicon Assay A”), replicon cells were seeded at 2000 cells/well in 384-well 384-well flat bottom tissue culture treated clear bottom plate (Corning 3707) in the presence of the test compound. Various concentrations of test compound, typically in 10 serial dilutions, were added to the assay mixture, with the starting concentration ranging from 333.3 nM to […]. The final concentration of DMSO was 0.5%. Fetal bovine serum was 5%, in the assay media. Cells were harvested on day 3 by removing media and washing the cells with a suitable wash buffer. The cells are lysed with the addition of 1× Qiagen lysis buffer (Cat #1062731). The replicon RNA level was measured using real time PCR (TaqMan® EZ RT-PCR, Applied Biosystems 403028) with the following primers and probes: […]
(§2) Cyclophilin RNA was used as endogenous control and was amplified in the same reaction as NS5B (multiplex PCR). The real-time RT-PCR reactions were run on ABI PRISM 7900HT Sequence Detection System using the following program: 50° C. for 2 minutes, 60° C. for 30 minutes, 95° C. for 5 minutes, 40 cycles of 94° C. for 20 sec, 55° C. for 1 minutes.
(§3) The amount of HCV replicon RNA per cell is quantified using a linear regression curve for a known nanogram (ng) amount of HCV replicon total RNA. This is established by plotting the Cycle Threshold values (Ct) from the Neo probe and primer set versus the log (ng) for each HCV replicon total RNA standard. The amount of HCV RNA for each replicon sample is calculated by taking the sample's Ct value, minus the line intercept, divided by the slope of the line. Similarly, the amount of Cyclophilin mRNA per cell is also quantified using a linear regression curve for a known nanogram (ng) amount of HCV replicon total RNA. Again, this is established by plotting the Cycle Threshold values (Ct) from the Cyclophilin probe and primer set versus the log (ng) for each HCV replicon total RNA standard.
(§4) Data was obtained for various compounds of the present invention using the methods described in the Example above, and is presented in the table immediately below. Data for replicons 1A, 1AY93H and 2B were obtained using Replicon Assay A and data for replicons 1B were obtained using Replicon Assay B.

HCV replicon 2B = experiment: Cell-based HCV replicon assay (Replicon Assay A), replicon 2B; conditions: read-out: Replicon EC50 (nM) 2B, replicon 2B, replicon RNA by real time PCR, cells harvested on day 3
Description: as §1, §2, §3, §4

HCV replicon 1A Y93H = experiment: Cell-based HCV replicon assay (Replicon Assay A), replicon 1AY93H; conditions: read-out: Replicon EC50 (nM) 1A Y93H, replicon 1A Y93H, replicon RNA by real time PCR, cells harvested on day 3
Description: as §1, §2, §3, §4

Row | SMILES | EC50 (HCV replicon 1A) [nM] | EC50 (HCV replicon 2B) [nM] | EC50 (HCV replicon 1A Y93H) [nM] | EC50 (HCV replicon 1A Y93H; Hepatitis C virus, 72 h) [nM] | EC50 (HCV replicon 1A; Hepatitis C virus, 72 h) [nM] | EC50 (HCV replicon 2B; Hepatitis C virus, 72 h) [nM]
1 | COC(=O)N[C@H](C(=O)N1CCC[C@H]1c1ncc(-c2cc(F)c3c(c2)OC(c2nc(C)co2)n2c-3cc3cc(-c4cnc([C@@H]5CCCN5C(=O)[C@@H](NC(=O)OC)C(C)C)[nH]4)ccc32)[nH]1)C(C)C (single isomer, unassigned) [Compound 24] | 0.0021 | 2.62 | 0.266 |  |  | 
2 | CCc1nnc(C2Oc3cc(-c4cnc([C@@H]5CCCN5C(=O)[C@@H](NC(=O)OC)C(C)C)[nH]4)cc(F)c3-c3cc4cc(-c5cnc([C@@H]6CCCN6C(=O)C(NC(=O)OC)C(C)C)[nH]5)ccc4n32)s1 (single isomer, unassigned) [Compound 34] | 0.0084 |  |  | 0.793 |  | 
3 | COC(=O)N[C@H](C(=O)N1CCC[C@H]1c1ncc(-c2cc(F)c3c(c2)OC(c2cc(C4CC4)no2)n2c-3cc3cc(-c4cnc([C@@H]5CCCN5C(=O)[C@@H](NC(=O)OC)C(C)C)[nH]4)ccc32)[nH]1)C(C)C (single isomer, unassigned) [Compound 29] |  | 0.46 | 3.25 |  |  | 
4 | COC(=O)N[C@H](C(=O)N1CCC[C@H]1c1ncc(-c2ccc3c(c2)OC(c2ccc(C)o2)n2c-3cc3cc(-c4cnc([C@@H]5C[C@@H](F)CN5C(=O)[C@@H](NC(=O)OC)C(C)C)[nH]4)ccc32)[nH]1)C(C)C (some centres unmarked) [Compound 43] |  |  |  | 1.02 | 0.0281 | 0.06
5 | COC(=O)N[C@H](C(=O)N1CCC[C@H]1c1ncc(-c2ccc3c(c2)OC(c2ccc(C)o2)n2c-3cc3cc(-c4cnc([C@@H]5CCCN5C(=O)[C@@H](NC(=O)OC)C(C)C)[nH]4)ccc32)[nH]1)C(C)C (some centres unmarked) [Compound 42] |  |  |  | 5.01 | 0.0309 | 6.16
6 | CCc1cc([C@@H]2Oc3cc(-c4cnc([C@@H]5CCCN5C(=O)[C@@H](NC(=O)OC)C(C)C)[nH]4)cc(F)c3-c3cc4cc(-c5cnc([C@@H]6CCCN6C(=O)[C@@H](NC(=O)OC)C(C)C)[nH]5)ccc4n32)on1 (single isomer, unassigned) [Compound 8] |  | 1.23 | 0.603 |  | 0.004 | 
7 | COC(=O)N[C@H](C(=O)N1CCC[C@H]1c1ncc(-c2cc(F)c3c(c2)OC(c2cc(C(C)C)no2)n2c-3cc3cc(-c4cnc([C@@H]5CCCN5C(=O)[C@@H](NC(=O)OC)C(C)C)[nH]4)ccc32)[nH]1)C(C)C (single isomer, unassigned) [Compound 26] |  | 0.8 | 0.816 |  |  | 
8 | COC(=O)N[C@H](C(=O)N1CCC[C@H]1c1ncc(-c2cc(F)c3c(c2)OC(c2nc(C(C)C)ns2)n2c-3cc3cc(-c4cnc([C@@H]5CCCN5C(=O)[C@@H](NC(=O)OC)C(C)C)[nH]4)ccc32)[nH]1)C(C)C (single isomer, unassigned) [Compound 32] | 0.0022 | 0.9 | 0.185 |  |  | 
9 | COC(=O)N[C@H](C(=O)N1CCC[C@H]1c1ncc(-c2cc(F)c3c(c2)OC(c2cnns2)n2c-3cc3cc(-c4cnc([C@@H]5CCCN5C(=O)[C@@H](NC(=O)OC)C(C)C)[nH]4)ccc32)[nH]1)C(C)C (single isomer, unassigned) [Compound 21] |  | 0.98 | 1.39 |  |  | 
10 | COC(=O)N[C@H](C(=O)N1CCC[C@@H]1c1ncc(-c2ccc3c(c2)cc2n3C(c3cnco3)Oc3cc(-c4cnc([C@H]5CCCN5C(=O)[C@H](NC(=O)OC)C(C)C)[nH]4)cc(F)c3-2)[nH]1)C(C)C (single isomer, unassigned) [Compound 18] | 0.0023 | 3.54 | 18.4 |  |  | 
11 | COC(=O)N[C@H](C(=O)N1CCC[C@H]1c1ncc(-c2cc(F)c3c(c2)OC(c2cc4ccccn4n2)n2c-3cc3cc(-c4cnc([C@@H]5CCCN5C(=O)[C@@H](NC(=O)OC)C(C)C)[nH]4)ccc32)[nH]1)C(C)C (single isomer, unassigned) [Compound 40] | 0.0084 | 1.54 | 0.536 |  |  | 
12 | COC(=O)N[C@H](C(=O)N1CCC[C@H]1c1ncc(-c2cc(F)c3c(c2)OC(c2cc4ccccn4n2)n2c-3cc3cc(-c4cnc([C@@H]5CCCN5C(=O)[C@@H](NC(=O)OC)C(C)C)[nH]4)ccc32)[nH]1)C(C)C (single isomer, unassigned) [Compound 41] | 0.0019 | 0.57 | 0.317 |  |  | 
13 | COC(=O)N[C@H](C(=O)N1CCC[C@H]1c1ncc(-c2cc(F)c3c(c2)OC(c2cc4ccccn4n2)n2c-3cc3cc(-c4cnc([C@@H]5CCCN5C(=O)[C@@H](NC(=O)OC)C(C)C)[nH]4)ccc32)[nH]1)C(C)C (mixture of isomers) [Compound 12] |  |  |  |  | 0.0202 | 33.3
14 | COC(=O)N[C@H](C(=O)N1CCC[C@H]1c1ncc(-c2ccc3c(c2)OC(c2ccc(C)o2)n2c-3cc3cc(-c4cnc([C@@H]5C[C@@H](F)CN5C(=O)[C@@H](NC(=O)OC)C5CCOCC5)[nH]4)ccc32)[nH]1)C(C)C (some centres unmarked) [Compound 44] |  |  |  | 0.434 | 0.0679 | 
15 | COC(=O)N[C@H](C(=O)N1CCC[C@H]1c1ncc(-c2ccc3c(c2)OC(c2nnc(-c4ccccc4)o2)n2c-3cc3cc(-c4cnc([C@@H]5CCCN5C(=O)[C@@H](NC(=O)OC)C5CCOCC5)[nH]4)ccc32)[nH]1)C1CCOCC1 (mixture of isomers) [Compound 38] |  |  |  | 0.737 | 0.223 | 
16 | COC(=O)N[C@H](C(=O)N1CCC[C@H]1c1ncc(-c2cc(F)c3c(c2)OC(c2cc4ccccn4n2)n2c-3cc3cc(-c4cnc([C@@H]5CCCN5C(=O)[C@@H](NC(=O)OC)C(C)C)[nH]4)ccc32)[nH]1)C(C)C (single isomer, unassigned) [Compound 39] | 0.0068 | 0.33 | 1.66 |  |  | 
17 | COC(=O)N[C@H](C(=O)N1CCC[C@H]1c1ncc(-c2cc(F)c3c(c2)OC(c2nc(C(C)C)ns2)n2c-3cc3cc(-c4cnc([C@@H]5CCCN5C(=O)[C@@H](NC(=O)OC)C(C)C)[nH]4)ccc32)[nH]1)C(C)C (single isomer, unassigned) [Compound 31] |  |  | 5.65 |  | 0.0013 | 1.64
18 | CCc1cc([C@@H]2Oc3cc(-c4cnc([C@@H]5CCCN5C(=O)[C@@H](NC(=O)OC)C(C)C)[nH]4)cc(F)c3-c3cc4cc(-c5cnc([C@@H]6CCCN6C(=O)[C@@H](NC(=O)OC)C(C)C)[nH]5)ccc4n32)on1 (single isomer, unassigned) [Compound 7] | 0.0073 | 10.5 | 49.7 |  |  | 
19 | COC(=O)N[C@H](C(=O)N1CCC[C@@H]1c1ncc(-c2ccc3c(c2)cc2n3C(c3nnc(C)s3)Oc3cc(-c4cnc([C@H]5CCCN5C(=O)[C@H](NC(=O)OC)C(C)C)[nH]4)cc(F)c3-2)[nH]1)C(C)C (single isomer, unassigned) [Compound 16] |  | 1.75 |  |  |  | 
20 | CCc1cc(C2Oc3cc(-c4cnc([C@@H]5CCCN5C(=O)[C@@H](NC(=O)OC)C(C)C)[nH]4)cc(F)c3-c3cc4cc(-c5cnc([C@@H]6CCCN6C(=O)[C@@H](NC(=O)OC)C(C)C)[nH]5)ccc4n32)on1 (mixture of isomers) [Compound 5] |  |  |  | 0.708 |  | 4.17
21 | COC(=O)N[C@H](C(=O)N1CCC[C@H]1c1ncc(-c2ccc3c(c2)OC(c2ccc(C)o2)n2c-3cc3cc(-c4cnc([C@@H]5C[C@H]6C[C@H]6N5C(=O)[C@@H](NC(=O)OC)C(C)C)[nH]4)ccc32)[nH]1)C(C)C (some centres unmarked) [Compound 45] |  |  |  | 4.22 | 0.0484 | 
22 | COC(=O)N[C@H](C(=O)N1CCC[C@@H]1c1ncc(-c2ccc3c(c2)cc2n3C(c3nnc(C)s3)Oc3cc(-c4cnc([C@H]5CCCN5C(=O)[C@H](NC(=O)OC)C(C)C)[nH]4)cc(F)c3-2)[nH]1)C(C)C (single isomer, unassigned) [Compound 15] |  |  |  |  |  | 3.06
23 | CCc1cnc(C2Oc3cc(-c4cnc([C@@H]5CCCN5C(=O)[C@@H](NC(=O)OC)C(C)C)[nH]4)cc(F)c3-c3cc4cc(-c5cnc([C@@H]6CCCN6C(=O)[C@@H](NC(=O)OC)C(C)C)[nH]5)ccc4n32)o1 (single isomer, unassigned) [Compound 27] |  | 5.5 |  |  | 0.0027 | 
24 | COC(=O)N[C@H](C(=O)N1CCC[C@H]1c1ncc(-c2cc(F)c3c(c2)OC(c2cnc4n2CCC4)n2c-3cc3cc(-c4cnc([C@@H]5CCCN5C(=O)[C@@H](NC(=O)OC)C(C)C)[nH]4)ccc32)[nH]1)C(C)C (some centres unmarked) [Compound 13] |  |  |  |  | 0.147 | 
